This note sets out measurements from patent US20240391954A1, “MC4R AGONIST PEPTIDES” (The Regents of the University of Michigan, priority 2021, published 2024).

Holding throughout (assay type): cell-based
Assay [1] has as its target T1, human MC3R (Homo sapiens, UniProt P41968).
T1 construct: expressed in transfected cells; host or cells: HEK-293 cells stably expressing the GScAMP22F split-luciferase cAMP sensor (parent reporter line from Promega); MC3R clone generated in-house, G418 selection
The assay is described as follows: split-luciferase cAMP sensor assay, agonist mode (measurement window 1), hMC3R. The following applies: for EC50: HEK-293 cells stably expressing hMC3R, read-out: MC3R cAMP EC50; for EC50 / Emax: agonist mode; for MC4R selectivity vs MC3R: MC4R versus MC3R; for Emax: % maximal activation, read-out: MC3R cAMP % max activation. An outline of the steps:
(§1)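 EC50 values come from a four-parameter variable-slope fit of luminescence in measurement window 1, capturing direct peptide effects on receptor-expressing cells with a cAMP22f luciferase sensor. Cells were preloaded with 4% D-luciferin, serum-free medium; 20 μM forskolin normalized for cell number and transducer efficiency.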

Assay [2] has as its target T2, human MC4R (Homo sapiens, UniProt P32245).
T2 construct: host or cells: HEK-293 cells stably expressing the GScAMP22F split-luciferase cAMP sensor and hMC4R, G418 selection
The assay is described as follows: split-luciferase cAMP sensor assay, agonist mode (measurement window 1), hMC4R. The following applies: agonist mode; for Emax: % maximal activation, read-out: MC4R cAMP % max activation; for EC50: HEK-293 cells stably expressing hMC4R, read-out: MC4R cAMP EC50. An outline of the steps:
as §1

In assay [3] the target is T3, human MC1R (Homo sapiens, UniProt Q01726).
T3 construct: expressed in transfected cells; host or cells: HEK-293 cells stably expressing hMC1R and the GScAMP22F cAMP sensor
T3 sequence (Q01726 whole entry): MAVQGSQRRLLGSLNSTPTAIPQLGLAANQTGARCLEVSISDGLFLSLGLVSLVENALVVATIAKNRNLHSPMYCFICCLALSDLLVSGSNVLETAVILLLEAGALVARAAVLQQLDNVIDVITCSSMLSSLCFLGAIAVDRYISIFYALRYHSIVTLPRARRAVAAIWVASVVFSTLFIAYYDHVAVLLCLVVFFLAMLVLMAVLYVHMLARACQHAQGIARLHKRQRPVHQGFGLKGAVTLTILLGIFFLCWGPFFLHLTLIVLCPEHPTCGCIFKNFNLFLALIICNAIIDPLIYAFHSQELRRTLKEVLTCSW
The assay is described as follows: split-luciferase cAMP sensor assay, agonist mode, hMC1R. The following applies: MC4R versus MC1R. In short, it runs like this:
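HEK-293 cells stably expressing hMC1R and the GScAMP22F split-luciferase cAMP sensor, preloaded 120 min at 37° C with D-luciferin in serum-free medium. Peptide responses were taken as peak luminescence over 2-13 min minus 2-min baseline, normalized to the α-MSH ECmax. EC50 was obtained from a four-parameter variable-slope fit.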

As usually defined, the EC50 is the concentration needed to bring the measured effect to its halfway point.

SMILES strings stand for the structures. Positions of bridges follow the written chain, without caps; N, C: chain ends. Non-standard residues stand in square brackets, D forms with d. Residues, ends and D or L forms follow the SMILES beside them. d1Nal = N[C@H](Cc1cccc2ccccc12)C(=O)O; Cit = NC(=O)NCCC[C@H](N)C(=O)O; Nle = CCCC[C@H](N)C(=O)O; Aib = CC(C)(N)C(=O)O Bounds are passed on as bounds.

T1 sequence (P41968 whole entry): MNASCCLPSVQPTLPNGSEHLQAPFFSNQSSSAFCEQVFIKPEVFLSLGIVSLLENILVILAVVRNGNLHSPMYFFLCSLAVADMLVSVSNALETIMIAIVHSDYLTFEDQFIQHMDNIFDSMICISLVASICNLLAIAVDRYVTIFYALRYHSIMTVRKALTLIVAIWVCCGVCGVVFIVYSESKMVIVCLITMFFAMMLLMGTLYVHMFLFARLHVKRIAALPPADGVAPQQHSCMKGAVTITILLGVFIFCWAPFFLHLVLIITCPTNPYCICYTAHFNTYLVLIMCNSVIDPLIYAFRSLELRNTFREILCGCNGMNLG
T2 sequence (P32245 whole entry): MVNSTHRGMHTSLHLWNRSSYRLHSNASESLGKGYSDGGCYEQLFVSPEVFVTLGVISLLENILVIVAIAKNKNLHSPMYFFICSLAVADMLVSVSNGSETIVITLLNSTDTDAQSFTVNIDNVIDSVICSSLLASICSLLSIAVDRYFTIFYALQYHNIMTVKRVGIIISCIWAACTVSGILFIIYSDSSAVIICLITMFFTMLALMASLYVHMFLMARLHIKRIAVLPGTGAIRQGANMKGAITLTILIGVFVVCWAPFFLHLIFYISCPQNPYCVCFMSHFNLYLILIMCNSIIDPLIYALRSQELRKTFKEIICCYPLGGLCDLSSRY

Consider `COc1ccc(C[C@H]2NC(=O)[C@H](CCCNC(N)=O)NC(=O)C(C)(C)NC(=O)[C@@H](NC(=O)[C@H](CCCNC(=N)N)NC(C)=O)CSSC[C@@H](C(N)=O)NC(=O)[C@H](Cc3ccccc3)NC(=O)[C@H](CCCNC(=N)N)NC2=O)cc1` [CTX-1299, Arg-cyclo(Cys-Aib-Cit-D-Tyr(4-OMe)-Arg-Phe-Cys)] (Ac-RC[Aib][Cit][dY](Me)RFC-NH2; disulfide 2-8), for which, in assay [1], the EC50 is greater than 10000 nM and the “MC4R selectivity vs MC3R” value is given as greater than 154. Besides, in assay [2], the Emax worked out at 78%. Also, the “MC4R selectivity vs MC1R” value in assay [3] is given as 3.66.
For the compound `CC(=O)N[C@H]1CSSC[C@@H](C(N)=O)NC(=O)[C@H](Cc2c[nH]c3ccccc23)NC(=O)[C@H](CCCNC(=N)N)NC(=O)[C@@H](Cc2ccccc2)NC(=O)[C@H](CCCNC(=N)N)NC(=O)[C@@H](C)NC1=O` [CTX-1627, cyclo(Cys-D-Ala-Arg-D-Phe-Arg-Trp-Cys)] (Ac-C[dA]R[dF]RWC-NH2; disulfide 1-7 (inferred)), in assay [1], the Emax turned out to be 98%, the EC50 turned out to be 3.7 nM and the “MC4R selectivity vs MC3R” value worked out at 2.47. In assay [2], the Emax was determined as 104% and the 50% effective concentration (EC50) worked out at 1.4 nM. Also, the “MC4R selectivity vs MC1R” value in assay [3] turned out to be 9.33.
In the case of `CC(=O)N[C@@H](CCCNC(=N)N)C(=O)N[C@H]1CSSC[C@@H](C(N)=O)NC(=O)[C@@H](Cc2c[nH]c3ccccc23)NC(=O)[C@H](CCCNC(=N)N)NC(=O)[C@@H](Cc2ccccc2)NC(=O)[C@H](CCCNC(N)=O)NC(=O)[C@@H](C)NC1=O` [CTX-1286, Arg-cyclo(Cys-D-Ala-Cit-D-Phe-Arg-D-Trp-Cys)] (Ac-RC[dA][Cit][dF]R[dW]C-NH2; disulfide 2-8), in assay [1], the Emax turned out to be 24% and the “MC4R selectivity vs MC3R” value was 2.16. In assay [2], the Emax was determined as 91%. Moreover, the “MC4R selectivity vs MC1R” value in assay [3] was 3.4.
As for `N=C(N)NCCC[C@@H]1NC(=O)CNC(=O)CSC[C@@H](C(N)=O)NC(=O)[C@H](Cc2c[nH]c3ccccc23)NC(=O)[C@H](CCCNC(=N)N)NC(=O)[C@@H](Cc2ccccc2)NC1=O` [CTX-1645, Thioether-cyclo(Gly-Arg-D-Phe-Arg-Trp-Cys)] ({CH2CO}-GR[dF]RWC-NH2; thioether N-6), in assay [1], the Emax turned out to be 97%, the EC50 was determined as 68 nM and the “MC4R selectivity vs MC3R” value was determined as 42. Besides, in assay [2], the Emax is 110% and the EC50 worked out at 1.6 nM. Further, in assay [3], the “MC4R selectivity vs MC1R” value is 9.04.
Take `CC(=O)N[C@@H](CCCNC(=N)N)C(=O)N[C@H]1CSSC[C@@H](C(N)=O)NC(=O)[C@H](Cc2c[nH]c3ccccc23)NC(=O)[C@H](CCCNC(=N)N)NC(=O)[C@@H](Cc2ccccc2)NC(=O)[C@H](Cc2c[nH]cn2)NC(=O)C(C)(C)NC1=O` [CTX-1291, Arg-cyclo(Cys-Aib-His-D-Phe-Arg-Trp-Cys)]: in assay [1], the Emax amounted to 91% and the “MC4R selectivity vs MC3R” value amounted to 7.99. The Emax in assay [2] is 98%. Besides, the “MC4R selectivity vs MC1R” value in assay [3] is listed as 1.31.
Turning to `CC1(C)NC(=O)CSC[C@@H](C(N)=O)NC(=O)[C@H](Cc2ccccc2)NC(=O)[C@H](CCCNC(=N)N)NC(=O)[C@@H](Cc2ccccc2)NC(=O)[C@H](CCCNC(=N)N)NC1=O` [CTX-1651, Thioether-cyclo(Aib-Arg-D-Phe-Arg-Phe-Cys)] ({CH2CO}-[Aib]R[dF]RFC-NH2; thioether N-6), in assay [1], the EC50 is greater than 10000 nM and the “MC4R selectivity vs MC3R” value is greater than 8. The Emax in assay [2] was found to be 92%. The “MC4R selectivity vs MC1R” value in assay [3] is 1.45.
Take `CCCC[C@H](NC(=O)[C@H](CCCNC(=N)N)NC(C)=O)C(=O)N[C@H]1CSSC[C@@H](C(N)=O)NC(=O)[C@H](Cc2c[nH]c3ccccc23)NC(=O)[C@H](CCCNC(=N)N)NC(=O)[C@@H](Cc2cccc3ccccc23)NC(=O)[C@H](CCCNC(=N)N)NC1=O` [CTX-1611, Arg-Nle-cyclo(Cys-Arg-D-Nal(1′)-Arg-Trp-Cys)] (Ac-R[Nle]CR[d1Nal]RWC-NH2; disulfide 3-8 (inferred)): in assay [1], the Emax came out at 58%, the EC50 turned out to be 11 nM and the “MC4R selectivity vs MC3R” value came out at 6.61. In assay [2], the Emax stood at 67% and the EC50 was determined as 1.6 nM. In assay [3], the “MC4R selectivity vs MC1R” value was 0.25.
For the compound `C[C@H]1NC(=O)CSC[C@@H](C(N)=O)NC(=O)[C@H](Cc2c[nH]c3ccccc23)NC(=O)[C@H](CCCNC(=N)N)NC(=O)[C@@H](Cc2ccccc2)NC(=O)[C@H](CCCNC(=N)N)NC1=O` [CTX-1642, Thioether-cyclo(D-Ala-Arg-D-Phe-Arg-Trp-Cys)] ({CH2CO}-[dA]R[dF]RWC-NH2; thioether N-6), in assay [1], the Emax was determined as 90% and the “MC4R selectivity vs MC3R” value came out at 29. Also, in assay [2], the Emax was found to be 107% and the EC50 turned out to be 2.9 nM. Further, the “MC4R selectivity vs MC1R” value in assay [3] was 13.
`CCCC[C@H](NC(=O)[C@H](CCCNC(=N)N)NC(C)=O)C(=O)N[C@H]1CSSC[C@@H](C(N)=O)NC(=O)[C@@H](Cc2c[nH]c3ccccc23)NC(=O)[C@H](CCCNC(=N)N)NC(=O)[C@@H](Cc2ccccc2)NC(=O)[C@H](CCCNC(=N)N)NC1=O` [CTX-1616, Arg-Nle-cyclo(Cys-Arg-D-Phe-Arg-D-Trp-Cys)] (Ac-R[Nle]CR[dF]R[dW]C-NH2; disulfide 3-8): in assay [1], the Emax was found to be 78% and the “MC4R selectivity vs MC3R” value came out at 3.78. In assay [2], the Emax came to 93% and the EC50 was determined as 16 nM. Further, the “MC4R selectivity vs MC1R” value in assay [3] worked out at 1.51.
Regarding `CC(=O)N[C@@H](CCCNC(=N)N)C(=O)N[C@H]1CSSC[C@@H](C(N)=O)NC(=O)[C@@H](Cc2c[nH]c3ccccc23)NC(=O)[C@H](CCCNC(=N)N)NC(=O)[C@@H](Cc2ccccc2)NC(=O)[C@H](CCCNC(=N)N)NC(=O)[C@@H](C)NC1=O` [CTX-1263, Arg-cyclo(Cys-D-Ala-Arg-D-Phe-Arg-D-Trp-Cys)] (Ac-RC[dA]R[dF]R[dW]C-NH2; disulfide 2-8), in assay [1], the Emax is 69%, the EC50 worked out at 11 nM and the “MC4R selectivity vs MC3R” value was found to be 1.62. In assay [2], the Emax stood at 93%. Also, in assay [3], the “MC4R selectivity vs MC1R” value came to 1.73.
Regarding `CC(=O)N[C@@H](CCCNC(=N)N)C(=O)N[C@H]1CSSC[C@@H](C(N)=O)NC(=O)[C@@H](Cc2c[nH]c3ccccc23)NC(=O)[C@H](CCCNC(N)=O)NC(=O)[C@@H](Cc2ccccc2)NC(=O)[C@H](CCCNC(=N)N)NC(=O)[C@@H](C)NC1=O` [CTX-1281, Arg-cyclo(Cys-D-Ala-Arg-D-Phe-Cit-D-Trp-Cys)] (Ac-RC[dA]R[dF][Cit][dW]C-NH2; disulfide 2-8 (inferred)), in assay [1], the Emax stood at 44%, the EC50 came to 28 nM and the “MC4R selectivity vs MC3R” value was found to be 0.29. The Emax in assay [2] was 92%. In assay [3], the “MC4R selectivity vs MC1R” value is 0.44.
With `CC(=O)N[C@H]1CSSC[C@@H](C(N)=O)NC(=O)[C@H](Cc2c[nH]c3ccccc23)NC(=O)[C@H](CCCNC(=N)N)NC(=O)[C@@H](Cc2ccccc2)NC(=O)[C@H](CCCNC(=N)N)NC(=O)CNC1=O` [CTX-1629, cyclo(Cys-Gly-Arg-D-Phe-Arg-Trp-Cys)] (Ac-CGR[dF]RWC-NH2; disulfide 1-7), in assay [1], the Emax is 83%, the EC50 was 13 nM and the “MC4R selectivity vs MC3R” value is recorded as 19. For the same compound, the Emax in assay [2] amounted to 102%. In addition, in assay [3], the “MC4R selectivity vs MC1R” value is 15.
On to `CCCC[C@H](NC(=O)[C@H](CCCNC(=N)N)NC(C)=O)C(=O)N[C@H]1CSSC[C@@H](C(N)=O)NC(=O)[C@@H](Cc2c[nH]c3ccccc23)NC(=O)[C@H](CCCNC(=N)N)NC(=O)[C@@H](Cc2ccccc2)NC(=O)[C@H](CCCNC(N)=O)NC1=O` [CTX-1608, Arg-Nle-cyclo(Cys-Cit-D-Phe-Arg-D-Trp-Cys)] (Ac-R[Nle]C[Cit][dF]R[dW]C-NH2; disulfide 3-8 (inferred)), for which, in assay [1], the Emax came to 19% and the “MC4R selectivity vs MC3R” value is listed as 0.95. In assay [2], the Emax was determined as 79% and the EC50 came to 288 nM. In addition, the “MC4R selectivity vs MC1R” value in assay [3] stood at 2.07.
The like results for `C[C@H]1NC(=O)CSC[C@@H](C(N)=O)NC(=O)[C@H](Cc2ccccc2)NC(=O)[C@H](CCCNC(=N)N)NC(=O)[C@@H](Cc2ccccc2)NC(=O)[C@H](Cc2c[nH]cn2)NC1=O` [CTX-1656, Thioether-cyclo(D-Ala-His-D-Phe-Arg-Phe-Cys)] ({CH2CO}-[dA]H[dF]RFC-NH2; thioether N-6) were, in that order, 86%, 1.64, 98%, 1400 nM and 1.
The corresponding values for `N=C(N)NCCC[C@@H]1NC(=O)[C@@H](Cc2ccccc2)NC(=O)[C@H](CCCNC(N)=O)NC(=O)CNC(=O)CSC[C@@H](C(N)=O)NC(=O)[C@H](Cc2c[nH]c3ccccc23)NC1=O` [CTX-1646, Thioether-cyclo(Gly-Cit-D-Phe-Arg-Trp-Cys)] ({CH2CO}-G[Cit][dF]RWC-NH2; thioether N-6) are 70%, 193, 103%, 13 nM and greater than 770.
